Experimental data reported in ChEMBL document CHEMBL1800066 (J Med Chem, 2011).
Activity calls are given as the source filed them. The calls are words filed in the database; no cut-off is given here.

Tests used:
[1] = molecular target: T1, Hepatocyte growth factor receptor (Homo sapiens, UniProt P08581); test: Inhibition of c-MET overexpressed in human GTL-16 cells assessed as phosphorylation at C-terminal Y1349 after 2 hrs by Western blot analysis; type: cell-based
[2] = Antiproliferative activity against human GTL16 cells after 72 hrs; settings: GTL 16, 72 h
[3] = Plasma clearance in rat at 2 mg/kg, iv and 5 mg/kg, po; type: ADME, organism-based
[4] = Volume of distribution at steady state in rat at 2 mg/kg, iv and 5 mg/kg, po; type: ADME, organism-based; settings: in vivo, read-out: Vdss
[5] = Half life in rat at 2 mg/kg, iv and 5 mg/kg, po; type: ADME, organism-based; settings: in vivo
[6] = Oral bioavailability in rat at 5 mg/kg; type: ADME, organism-based; settings: in vivo
[7] = molecular target: Voltage-gated inwardly rectifying potassium channel KCNH2 (Homo sapiens, UniProt Q12809); test: Inhibition of Kv11.1 channel
[8] = AUC (0 to infinity) in mouse at 1 mg/kg, iv; type: ADME, organism-based; parameters: time infinity, dose 1 mg/kg, route intravenous; settings: plasma
[9] = AUC (0 to infinity) in rat at 2 mg/kg, iv; type: ADME, organism-based; parameters: time infinity, dose 2 mg/kg, route intravenous; settings: plasma
[10] = system: Canis familiaris; test: AUC (0 to infinity) in dog at 1 mg/kg, iv; type: ADME, organism-based, Canis lupus familiaris, Plasma; parameters: time infinity, dose 1 mg/kg, route intravenous; settings: in vivo
[11] = system: Canis familiaris; test: AUC (0 to infinity) in dog at 2 mg/kg, po; type: ADME, organism-based, Canis lupus familiaris, Plasma; parameters: time infinity, dose 2 mg/kg, route oral; settings: in vivo
[12] = AUC (0 to infinity) in monkey at 0.25 mg/kg, iv; type: ADME, organism-based, Macaca mulatta; parameters: time infinity, dose 0.25 mg/kg, route intravenous; settings: rhesus monkey, plasma
[13] = AUC (0 to infinity) in monkey at 0.5 mg/kg, po; type: ADME, organism-based, Macaca mulatta; parameters: time infinity, dose 0.5 mg/kg, route oral; settings: rhesus monkey, plasma
[14] = Plasma clearance in mouse at 1 mg/kg, iv; type: ADME, organism-based; parameters: dose 1 mg/kg, route intravenous
[15] = Plasma clearance in dog at 1 mg/kg, iv; type: ADME, organism-based, Canis lupus familiaris; parameters: dose 1 mg/kg, route intravenous
[16] = Volume of distribution at steady state in mouse at 1 mg/kg, iv; type: ADME, organism-based; parameters: dose 1 mg/kg, route intravenous; settings: in vivo, read-out: Vdss
[17] = Volume of distribution at steady state in dog at 1 mg/kg, iv; type: ADME, organism-based, Canis lupus familiaris; parameters: dose 1 mg/kg, route intravenous; settings: in vivo, read-out: Vdss
[18] = Volume of distribution at steady state in monkey at 0.25 mg/kg, iv; type: ADME, organism-based, Macaca mulatta; parameters: dose 0.25 mg/kg, route intravenous; settings: rhesus monkey, in vivo, read-out: Vdss
[19] = Half life in mouse at 1 mg/kg, iv; type: ADME, organism-based; parameters: dose 1 mg/kg, route intravenous; settings: in vivo
[20] = Half life in dog at 1 mg/kg, iv; type: ADME, organism-based, Canis lupus familiaris; parameters: dose 1 mg/kg, route intravenous; settings: in vivo
[21] = Cmax in mouse at 2 mg/kg, po; type: ADME, organism-based; parameters: dose 2 mg/kg, route oral; settings: in vivo
[22] = Cmax in dog at 2 mg/kg, po; type: ADME, organism-based, Canis lupus familiaris; parameters: dose 2 mg/kg, route oral; settings: in vivo
[23] = Cmax in monkey at 0.5 mg/kg, po; type: ADME, organism-based, Macaca mulatta; parameters: dose 0.5 mg/kg, route oral; settings: rhesus monkey, in vivo
[24] = Tmax in mouse at 2 mg/kg, po; type: ADME, organism-based; parameters: dose 2 mg/kg, route oral; settings: in vivo
[25] = Tmax in rat at 5 mg/kg, po; type: ADME, organism-based; parameters: dose 5 mg/kg, route oral; settings: in vivo
[26] = Tmax in dog at 2 mg/kg, po; type: ADME, organism-based, Canis lupus familiaris; parameters: dose 2 mg/kg, route oral; settings: in vivo
[27] = Tmax in monkey at 0.5 mg/kg, po; type: ADME, organism-based, Macaca mulatta; parameters: dose 0.5 mg/kg, route oral; settings: rhesus monkey, in vivo
[28] = Oral bioavailability in mouse at 2 mg/kg; type: ADME, organism-based; settings: in vivo
[29] = system: Canis familiaris; test: Oral bioavailability in dog at 2 mg/kg; type: ADME, organism-based, Canis lupus familiaris; settings: in vivo
[30] = Oral bioavailability in monkey at 0.5 mg/kg; type: ADME, organism-based, Macaca mulatta; settings: rhesus monkey, in vivo
[31] = molecular target: Cytochrome P450 2D6 (Homo sapiens, UniProt P10635); test: Inhibition of CYP2D6; type: ADME
[32] = Lipophilicity, log P of the compound; type: physicochemical; settings: octanol/water
[33] = molecular target: T1, Hepatocyte growth factor receptor; test: Inhibition of recombinant human c-MET phosphorylation at C-terminal Y1365
[34] = molecular target: T1, Hepatocyte growth factor receptor; test: Inhibition of recombinant human c-MET phosphorylation at C-terminal Y1234
[35] = molecular target: T1, Hepatocyte growth factor receptor; test: Inhibition of recombinant human c-MET phosphorylation at C-terminal Y1235
[36] = molecular target: T1, Hepatocyte growth factor receptor; test: Inhibition of c-MET overexpressed in human GTL-16 cells assessed as phosphorylation at C-terminal Y1365 after 2 hrs by Western blot analysis; type: cell-based
[37] = molecular target: T1, Hepatocyte growth factor receptor; test: Inhibition of c-MET overexpressed in human GTL-16 cells assessed as phosphorylation at C-terminal Y1234 after 2 hrs by Western blot analysis; type: cell-based
[38] = molecular target: T1, Hepatocyte growth factor receptor; test: Binding affinity to human recombinant His6-tagged unphosphorylated c-Met cytosolic domain
[39] = molecular target: Hepatocyte growth factor receptor (Homo sapiens, UniProt P08581, N1100Y)
[40] = molecular target: Hepatocyte growth factor receptor (Homo sapiens, UniProt P08581, Y1230C)
[41] = molecular target: Hepatocyte growth factor receptor (Homo sapiens, UniProt P08581, Y1230H)
[42] = molecular target: Fibroblast growth factor receptor 2 (Homo sapiens, UniProt P21802); test: Inhibition of human FGFR2
[43] = molecular target: High affinity nerve growth factor receptor (Homo sapiens, UniProt P04629); test: Inhibition of human TrkA
[44] = molecular target: Fibroblast growth factor receptor 3 (Homo sapiens, UniProt P22607); test: Inhibition of human FGFR3
[45] = molecular target: BDNF/NT-3 growth factors receptor (Homo sapiens, UniProt Q16620); test: Inhibition of human TrkB
[46] = molecular target: Fibroblast growth factor receptor 1 (Homo sapiens, UniProt P11362); test: Inhibition of human FGFR1
[47] = molecular target: Vascular endothelial growth factor receptor 3 (Homo sapiens, UniProt P35916); test: Inhibition of human Flt4
[48] = molecular target: Tyrosine-protein kinase ABL1 (Homo sapiens, UniProt P00519); test: Inhibition of human Abl
[49] = molecular target: Platelet-derived growth factor receptor alpha (Homo sapiens, UniProt P16234); test: Inhibition of human PDGFR-alpha
[50] = system: Mus musculus; test: Inhibition of c-Met phosphorylation at Y1349 in human GTL16 cells xenografted in po dosed CD1 nu/nu mouse measured 1 hr post dosing by Western blot analysis; settings: CD1, GTL 16, 1 h
[51] = system: GTL 16; test: Antitumor activity against human GTL16 cells xenografted in CD1 nu/nu mouse assessed as suppression of tumor growth at 10 to 100 mg/kg, po BID; type: functional, organism-based
[52] = system: Mus musculus; test: Toxicity in human GTL16 cells xenografted CD1 nu/nu mouse assessed as mortality at 10 to 100 mg/kg, po BID; type: organism-based; parameters: dose 10-100 mg/kg, route oral; settings: in vivo
[53] = system: Mus musculus; test: Toxicity in human GTL16 cells xenografted CD1 nu/nu mouse assessed as mortality at 10 to 200 mg/kg, po qd; type: organism-based; parameters: dose 10-200 mg/kg, route oral; settings: in vivo
[54] = system: Mus musculus; test: Toxicity in human GTL16 cells xenografted CD1 nu/nu mouse assessed as change in median body weight at 10 to 100 mg/kg, po BID; type: organism-based; parameters: dose 10-100 mg/kg, route oral; settings: in vivo
[55] = system: Mus musculus; test: Inhibition of c-Met phosphorylation at Y1365 in human GTL16 cells xenografted in CD1 nu/nu mouse at 10 to 100 mg/kg, po BID measured after 4 hrs by immunostaining assay; type: functional, organism-based
[56] = system: Mus musculus; test: Inhibition of c-Met phosphorylation at Y1349 in human GTL16 cells xenografted in CD1 nu/nu mouse at 10 to 100 mg/kg, po BID measured after 4 hrs by immunostaining assay; type: functional, organism-based
[57] = molecular target: T1, Hepatocyte growth factor receptor

## CN(C[C@@H]1COCCO1)S(=O)(=O)Nc1ccc2ccc3ncc(-c4cnn(C)c4)cc3c(=O)c2c1 [MK-2461]
[1]
  IC50: 56 nM
[2]
  IC50: 440 nM
[3]
  clearance: 9.1 mL/min/kg
[4]
  Vd: 0.4 L/kg
[5]
  half-life: 48 min
[6]
  bioavailability: 62%
[7]
  IC50: > 30000 nM
[8]
  AUC(0-inf): 0.4 µM·h
[9]
  AUC(0-inf): 7.6 µM·h
[10]
  AUC: 8.4 µM·h
[11]
  AUC: 13.7 µM·h
[12]
  AUC(0-inf): 1 µM·h
[13]
  AUC(0-inf): 0.4 µM·h
[14]
  clearance: 83 mL/min/kg
[15]
  clearance: 4.3 mL/min/kg
[16]
  Vd: 3.2 L/kg
[17]
  Vd: 1.1 L/kg
[18]
  Vd: 0.5 L/kg
[19]
  half-life: 30 min
[20]
  half-life: 174 min
[21]
  Cmax: 410 nM
[22]
  Cmax: 2500 nM
[23]
  Cmax: 120 nM
[24]
  Tmax: 18 min
[25]
  Tmax: 42 min
[26]
  Tmax: 84 min
[27]
  Tmax: 180 min
[28]
  bioavailability: 75%
[29]
  F: 13%
[30]
  bioavailability: 14%
[31]
  IC50: > 100000 nM
[32]
  logP: 2.7
[33]
  IC50: 26 nM
[34]
  IC50: 900 nM
[35]
  IC50: 900 nM
[36]
  IC50: 50 nM
[37]
  IC50: > 2500 nM
[38]
  Kd: 25 nM
[39]
  IC50: 1.5 nM
[40]
  IC50: 1.5 nM
[41]
  IC50: 1 nM
[42]
  IC50: 39 nM
[43]
  IC50: 46 nM
[44]
  IC50: 50 nM
[45]
  IC50: 61 nM
[46]
  IC50: 65 nM
[47]
  IC50: 78 nM
[48]
  IC50: 7800 nM
[49]
  IC50: < 100 nM
[50]
  IC50: 1000 nM
[51]
  Activity: Active
[52]
  Activity: Non-toxic
[53]
  Activity: Non-toxic
[54]
  Activity: Non-toxic
[55]
  inhibition: Active
[56]
  inhibition: Active
[57]
  IC50: 2 nM
